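96-well plates; 48 h exposure; 5 concentrations. Endpoints by linear interpolation between flanking doses. Not reached: highest tested concentration assigned. GI50 is the concentration that inhibits growth by half. TGI: concentration producing complete growth inhibition.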
Key:
Experiment in all cases: NCI-60 cell line screen, 48 h
A549 NSCLC = system: A549 NSCLC
CCRF-CEM leukemia = system: CCRF-CEM leukemia
SK-OV-3 ovarian = system: SK-OV-3 ovarian
HCC-2998 colon = system: HCC-2998 colon
SF-268 CNS = system: SF-268 CNS
HCT-15 colon = system: HCT-15 colon
HL-60(TB) leukemia = system: HL-60(TB) leukemia
U251 CNS = system: U251 CNS
HOP-92 NSCLC = system: HOP-92 NSCLC
OVCAR-8 ovarian = system: OVCAR-8 ovarian
SNB-19 CNS = system: SNB-19 CNS
HOP-62 NSCLC = system: HOP-62 NSCLC
OVCAR-5 ovarian = system: OVCAR-5 ovarian
EKVX NSCLC = system: EKVX NSCLC
COLO 205 colon = system: COLO 205 colon
A498 renal = system: A498 renal
MDA-MB-435 = system: MDA-MB-435
KM12 colon = system: KM12 colon
ACHN renal = system: ACHN renal
MCF7 breast = system: MCF7 breast
NCI-H226 lung = system: NCI-H226 lung
OVCAR-3 ovarian = system: OVCAR-3 ovarian
OVCAR-4 ovarian = system: OVCAR-4 ovarian
HCT-116 colon = system: HCT-116 colon
HS 578T breast = system: HS 578T breast
786-0 renal = system: 786-0 renal
MOLT-4 leukemia = system: MOLT-4 leukemia
TK-10 renal = system: TK-10 renal
UO-31 renal = system: UO-31 renal
HT29 colon = system: HT29 colon
PC-3 prostate = system: PC-3 prostate
DU-145 prostate = system: DU-145 prostate
BT-549 breast = system: BT-549 breast
T-47D breast = system: T-47D breast
IGROV1 ovarian = system: IGROV1 ovarian
MALME-3M melanoma = system: MALME-3M melanoma
RXF 393 renal = system: RXF 393 renal
SW-620 colon = system: SW-620 colon
RPMI-8226 leukemia = system: RPMI-8226 leukemia
SK-MEL-5 melanoma = system: SK-MEL-5 melanoma
SK-MEL-2 melanoma = system: SK-MEL-2 melanoma
SF-539 CNS = system: SF-539 CNS
SF-295 CNS = system: SF-295 CNS
NCI/ADR-RES ovarian = system: NCI/ADR-RES ovarian
SNB-75 CNS = system: SNB-75 CNS
MDA-MB-231 breast = system: MDA-MB-231 breast
SN12C renal = system: SN12C renal
SR leukemia = system: SR leukemia
CAKI-1 renal = system: CAKI-1 renal
UACC-62 melanoma = system: UACC-62 melanoma
NCI-H460 lung = system: NCI-H460 lung
UACC-257 melanoma = system: UACC-257 melanoma
NCI-H23 lung = system: NCI-H23 lung
LOX IMVI melanoma = system: LOX IMVI melanoma
M14 melanoma = system: M14 melanoma
SK-MEL-28 melanoma = system: SK-MEL-28 melanoma

SMILES: C#C[C@]1(O)CC[C@H]2[C@@H]3CC=C4c5sc(Nc6ncccc6C)nc5CC[C@]4(C)[C@H]3CC[C@@]21C
- GI50 (A549 NSCLC): 2.05 µM
- TGI (A549 NSCLC): 12.8 µM
- GI50 (CCRF-CEM leukemia): 1.01 µM
- TGI (CCRF-CEM leukemia): 4.46 µM
- GI50 (SK-OV-3 ovarian): 1.85 µM
- TGI (SK-OV-3 ovarian): 4.66 µM
- GI50 (HCC-2998 colon): 2.53 µM
- TGI (HCC-2998 colon): 6.71 µM
- GI50 (SF-268 CNS): 1.86 µM
- TGI (SF-268 CNS): 7.3 µM
- GI50 (HCT-15 colon): 1.36 µM
- TGI (HCT-15 colon): 3 µM
- GI50 (HL-60(TB) leukemia): 1.4 µM
- TGI (HL-60(TB) leukemia): 3.76 µM
- GI50 (U251 CNS): 0.753 µM
- TGI (U251 CNS): 3.34 µM
- GI50 (HOP-92 NSCLC): 2.31 µM
- TGI (HOP-92 NSCLC): 5.99 µM
- GI50 (OVCAR-8 ovarian): 1.99 µM
- TGI (OVCAR-8 ovarian): 13.6 µM
- GI50 (SNB-19 CNS): 1.88 µM
- TGI (SNB-19 CNS): 6.58 µM
- GI50 (HOP-62 NSCLC): 1.35 µM
- TGI (HOP-62 NSCLC): 3.31 µM
- GI50 (OVCAR-5 ovarian): 1.83 µM
- TGI (OVCAR-5 ovarian): 4.39 µM
- GI50 (EKVX NSCLC): 1.34 µM
- TGI (EKVX NSCLC): 9.53 µM
- GI50 (COLO 205 colon): 1.8 µM
- TGI (COLO 205 colon): 3.9 µM
- GI50 (A498 renal): 0.454 µM
- TGI (A498 renal): 1.91 µM
- GI50 (MDA-MB-435): 2.08 µM
- TGI (MDA-MB-435): 6.39 µM
- GI50 (KM12 colon): 1.66 µM
- TGI (KM12 colon): 4.55 µM
- GI50 (ACHN renal): 1.85 µM
- TGI (ACHN renal): 10.7 µM
- GI50 (MCF7 breast): 1.05 µM
- TGI (MCF7 breast): 3.15 µM
- GI50 (NCI-H226 lung): 1.49 µM
- TGI (NCI-H226 lung): 3.4 µM
- GI50 (OVCAR-3 ovarian): 2.04 µM
- TGI (OVCAR-3 ovarian): 5.29 µM
- GI50 (OVCAR-4 ovarian): 1.9 µM
- TGI (OVCAR-4 ovarian): 11.3 µM
- GI50 (HCT-116 colon): 1.04 µM
- TGI (HCT-116 colon): 2.51 µM
- GI50 (HS 578T breast): 0.424 µM
- TGI (HS 578T breast): 2.3 µM
- GI50 (786-0 renal): 0.355 µM
- TGI (786-0 renal): 1.43 µM
- GI50 (MOLT-4 leukemia): 0.561 µM
- TGI (MOLT-4 leukemia): 2.7 µM
- GI50 (TK-10 renal): 2.56 µM
- TGI (TK-10 renal): 6.82 µM
- GI50 (UO-31 renal): 1.23 µM
- TGI (UO-31 renal): 2.82 µM
- GI50 (HT29 colon): 1.6 µM
- TGI (HT29 colon): 3.99 µM
- GI50 (PC-3 prostate): 0.603 µM
- TGI (PC-3 prostate): 8.67 µM
- GI50 (DU-145 prostate): 2.24 µM
- TGI (DU-145 prostate): 7.46 µM
- GI50 (BT-549 breast): 1.17 µM
- TGI (BT-549 breast): 4.12 µM
- GI50 (T-47D breast): 2.11 µM
- TGI (T-47D breast): 8.52 µM
- GI50 (IGROV1 ovarian): 2.45 µM
- TGI (IGROV1 ovarian): 8.96 µM
- GI50 (MALME-3M melanoma): 1.78 µM
- TGI (MALME-3M melanoma): 4.85 µM
- GI50 (RXF 393 renal): 0.15 µM
- TGI (RXF 393 renal): 0.456 µM
- GI50 (SW-620 colon): 1.53 µM
- TGI (SW-620 colon): 3.1 µM
- GI50 (RPMI-8226 leukemia): 0.264 µM
- TGI (RPMI-8226 leukemia): 0.681 µM
- GI50 (SK-MEL-5 melanoma): 1.57 µM
- TGI (SK-MEL-5 melanoma): 2.96 µM
- GI50 (SK-MEL-2 melanoma): 1.28 µM
- TGI (SK-MEL-2 melanoma): 4.35 µM
- GI50 (SF-539 CNS): 0.335 µM
- TGI (SF-539 CNS): 1.31 µM
- GI50 (SF-295 CNS): 0.246 µM
- TGI (SF-295 CNS): 0.694 µM
- GI50 (NCI/ADR-RES ovarian): 1.81 µM
- TGI (NCI/ADR-RES ovarian): 6.15 µM
- GI50 (SNB-75 CNS): 0.568 µM
- TGI (SNB-75 CNS): 5.44 µM
- GI50 (MDA-MB-231 breast): 1.65 µM
- TGI (MDA-MB-231 breast): 4.39 µM
- GI50 (SN12C renal): 1.83 µM
- TGI (SN12C renal): 4.16 µM
- GI50 (SR leukemia): 0.493 µM
- TGI (SR leukemia): 2.46 µM
- GI50 (CAKI-1 renal): 1.35 µM
- TGI (CAKI-1 renal): 3.28 µM
- GI50 (UACC-62 melanoma): 1.55 µM
- TGI (UACC-62 melanoma): 3.43 µM
- GI50 (NCI-H460 lung): 1.27 µM
- TGI (NCI-H460 lung): 2.86 µM
- GI50 (UACC-257 melanoma): 1.64 µM
- TGI (UACC-257 melanoma): 4.29 µM
- GI50 (NCI-H23 lung): 1.77 µM
- TGI (NCI-H23 lung): 6.24 µM
- GI50 (LOX IMVI melanoma): 1.32 µM
- TGI (LOX IMVI melanoma): 2.72 µM
- GI50 (M14 melanoma): 1.29 µM
- TGI (M14 melanoma): 3.43 µM
- GI50 (SK-MEL-28 melanoma): 0.425 µM
- TGI (SK-MEL-28 melanoma): 1.64 µM
